Assay results: PubChem BioAssay AID2060508 (Molecular Pharmacology Branch, DTP, NCI, 2025)
Values belong to the compound of their own block, whether it stands above or below them.

System: 454973-116-R2-J3-PDC spheroids, viability, % test/control
Experiment: Anticancer human tumor 454973-116-R2-J3-PDC patient-derived pancreatic carcinoma cell line growth inhibition [GQUAD]
Settings: spheroids with HUVEC and MSC; for IC50: curve of first compound; for viability, T/C: stronger effect = lower value
In short: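 Multi-cell-type spheroids of tumor cells with HUVEC and mesenchymal stem cells, treated with drug combinations. Concentrations descend in half-log steps from near clinical Cmax, or from 10 microM where Cmax is unknown; viability read-out.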

[1] = second compound 0.0316 µM, first compound 0.0316 µM
[2] = second compound 0.0316 µM, first compound 0.316 µM
[3] = second compound 0.1 µM, first compound 0.0316 µM
[4] = second compound 0.1 µM, first compound 0.316 µM
[5] = second compound 0.316 µM, first compound 0.0316 µM
[6] = second compound 0.316 µM, first compound 0.316 µM
[7] = second compound 1 µM, first compound 0.0316 µM
[8] = second compound 1 µM, first compound 0.316 µM
[9] = second compound 3.16 µM, first compound 0.0316 µM
[10] = second compound 3.16 µM, first compound 0.316 µM
[11] = second compound 10 µM, first compound 0.0316 µM
[12] = second compound 10 µM, first compound 0.316 µM
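Note: spheroids exposed to compounds for seven days.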
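Throughout, for viability, T/C: 100% = DMSO vehicle control viability.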

- IC50 (second compound 0.0316 µM): 0.814 µM
- IC50 (second compound 0.1 µM): 0.269 µM
- IC50 (second compound 0.316 µM): 0.416 µM
- IC50 (second compound 1 µM): 0.53 µM
- IC50 (second compound 3.16 µM): 0.578 µM
- IC50 (second compound 10 µM): < 0.0316 µM
Structure (SMILES): COc1ccc([C@@H](O)c2cc(-c3ncnc4cc(N5CCOCC5)ccc34)c(F)cc2Cl)nn1 + Cc1cnc(CNC(=O)c2c(=O)c3ccc(N4CCCN(C)CC4)nc3n3c2sc2ccccc23)cn1
- viability, T/C [1]: 104%
- viability, T/C (second compound 0.0316 µM, first compound 0.1 µM): 88.2%
- viability, T/C [2]: 72.3%
- viability, T/C (second compound 0.0316 µM, first compound 1 µM): 43.9%
- viability, T/C (second compound 0.0316 µM, first compound 3.16 µM): 34%
- viability, T/C (second compound 0.0316 µM, first compound 10 µM): 33.9%
- viability, T/C [3]: 83.5%
- viability, T/C (second compound 0.1 µM, first compound 0.1 µM): 71.3%
- viability, T/C [4]: 46%
- viability, T/C (second compound 0.1 µM, first compound 1 µM): 35.3%
- viability, T/C (second compound 0.1 µM, first compound 3.16 µM): 32.1%
- viability, T/C (second compound 0.1 µM, first compound 10 µM): 30.1%
- viability, T/C [5]: 70.8%
- viability, T/C (second compound 0.316 µM, first compound 0.1 µM): 66.3%
- viability, T/C [6]: 49.6%
- viability, T/C (second compound 0.316 µM, first compound 1 µM): 42%
- viability, T/C (second compound 0.316 µM, first compound 3.16 µM): 40.1%
- viability, T/C (second compound 0.316 µM, first compound 10 µM): 30.8%
- viability, T/C [7]: 68.2%
- viability, T/C (second compound 1 µM, first compound 0.1 µM): 59.2%
- viability, T/C [8]: 55.1%
- viability, T/C (second compound 1 µM, first compound 1 µM): 43.7%
- viability, T/C (second compound 1 µM, first compound 3.16 µM): 39.8%
- viability, T/C (second compound 1 µM, first compound 10 µM): 28.4%
- viability, T/C [9]: 69%
- viability, T/C (second compound 3.16 µM, first compound 0.1 µM): 54.3%
- viability, T/C [10]: 61.2%
- viability, T/C (second compound 3.16 µM, first compound 1 µM): 41.5%
- viability, T/C (second compound 3.16 µM, first compound 3.16 µM): 39.7%
- viability, T/C (second compound 3.16 µM, first compound 10 µM): 27.3%
- viability, T/C [11]: 0.28%
- viability, T/C (second compound 10 µM, first compound 0.1 µM): 0.73%
- viability, T/C [12]: 0.4%
- viability, T/C (second compound 10 µM, first compound 1 µM): 0.39%
- viability, T/C (second compound 10 µM, first compound 3.16 µM): 0.33%
- viability, T/C (second compound 10 µM, first compound 10 µM): 0.28%

Structure (SMILES): CC[C@@]1(O)C(=O)OCc2c1cc1n(c2=O)Cc2cc3c(CN(C)C)c(O)ccc3nc2-1 + Cc1[nH]c2ccc(F)cc2c1-c1nc2c3cccnc3c3ncccc3c2[nH]1
- IC50 (second compound 0.0316 µM): 0.0527 µM
- IC50 (second compound 0.1 µM): 0.0478 µM
- IC50 (second compound 0.316 µM): 0.0454 µM
- IC50 (second compound 1 µM): 0.0443 µM
- IC50 (second compound 3.16 µM): 0.0523 µM
- IC50 (second compound 10 µM): 0.0379 µM
- viability, T/C (second compound 0.0316 µM, first compound 0.000999 µM): 97.3%
- viability, T/C (second compound 0.0316 µM, first compound 0.00316 µM): 95.9%
- viability, T/C (second compound 0.0316 µM, first compound 0.00999 µM): 94.7%
- viability, T/C [1]: 69.2%
- viability, T/C (second compound 0.0316 µM, first compound 0.0999 µM): 25%
- viability, T/C [2]: 26.9%
- viability, T/C (second compound 0.1 µM, first compound 0.000999 µM): 114%
- viability, T/C (second compound 0.1 µM, first compound 0.00316 µM): 93.7%
- viability, T/C (second compound 0.1 µM, first compound 0.00999 µM): 102%
- viability, T/C [3]: 66%
- viability, T/C (second compound 0.1 µM, first compound 0.0999 µM): 20.8%
- viability, T/C [4]: 21.8%
- viability, T/C (second compound 0.316 µM, first compound 0.000999 µM): 102%
- viability, T/C (second compound 0.316 µM, first compound 0.00316 µM): 119%
- viability, T/C (second compound 0.316 µM, first compound 0.00999 µM): 92.7%
- viability, T/C [5]: 65%
- viability, T/C (second compound 0.316 µM, first compound 0.0999 µM): 19.7%
- viability, T/C [6]: 20.7%
- viability, T/C (second compound 1 µM, first compound 0.000999 µM): 103%
- viability, T/C (second compound 1 µM, first compound 0.00316 µM): 99.3%
- viability, T/C (second compound 1 µM, first compound 0.00999 µM): 94.6%
- viability, T/C [7]: 62.4%
- viability, T/C (second compound 1 µM, first compound 0.0999 µM): 19.6%
- viability, T/C [8]: 20.7%
- viability, T/C (second compound 3.16 µM, first compound 0.000999 µM): 97.7%
- viability, T/C (second compound 3.16 µM, first compound 0.00316 µM): 101%
- viability, T/C (second compound 3.16 µM, first compound 0.00999 µM): 85%
- viability, T/C [9]: 70.9%
- viability, T/C (second compound 3.16 µM, first compound 0.0999 µM): 20.8%
- viability, T/C [10]: 25.2%
- viability, T/C (second compound 10 µM, first compound 0.000999 µM): 100%
- viability, T/C (second compound 10 µM, first compound 0.00316 µM): 83.9%
- viability, T/C (second compound 10 µM, first compound 0.00999 µM): 82.3%
- viability, T/C [11]: 56.7%
- viability, T/C (second compound 10 µM, first compound 0.0999 µM): 23.2%
- viability, T/C [12]: 23%
